The IC50 is the concentration that inhibits the measured activity by half.

The target of assay [1] is T1, rCRLR/rRAMP1 (native rat CGRP receptor) (Rattus norvegicus, UniProt Q63118+Q9JJ74).
T1 construct: expressed in transfected cells; host or cells: 293 EBNA cells, transient co-transfection, membranes
As to the kind of experiment: competitive 125I-hCGRP binding, membranes expressing rCRLR/rRAMP1. The protocol:
(§1) Cell Culture and DNA Transfection—293 EBNA cells were cultured in DMEM with 4.5 g/L glucose, 1 mM sodium pyruvate and 2 mM glutamine supplemented with 10% Fetal Bovine Serum (FBS), 100 units/mL penicillin and 100 μg/mL streptomycin, and maintained at 37° C. and 95% humidity. Cells were subcultured by treatment with 0.25% trypsin with 0.1% EDTA in HBSS.
(§2) Twenty-four hours prior to transfection, the cells were seeded at 2.0×10^7/dish in 500 cm^2 dishes. The following day, the cells were re-fed with fresh growth medium 1 hour before transfection. Transfections were performed by combining 60 μg/dish DNA with 180 μg/dish Lipofectamine 2000 (Life Technologies). cDNA's for CRLR and RAMP1 in the mammalian expression vector pcDNA3.1 were co-transfected in equal amounts. The transfection cocktail was added directly to the medium and this mixture was replaced with fresh medium 24 hours later. The cells were harvested for membranes 48 hours post-transfection.
(§3) Membrane Preparation and Radioligand Binding Studies—Transiently transfected 293 EBNA cells were washed once with PBS and harvested in harvest buffer containing 50 mM HEPES, 1 mM EDTA and Complete protease inhibitors (Roche).

The next assay has as its target T2, rCRLR/hRAMP1 (UniProt O60894+Q63118).
T2 construct: expressed in transfected cells; host or cells: 293 EBNA cells, transient co-transfection, membranes
As to the kind of experiment: competitive 125I-hCGRP binding, membranes expressing hybrid rCRLR/hRAMP1. Set-up: species or system rat CRLR, human RAMP1. As to conditions: Table 4. How it is done:
as §1
as §2, with “post-transfection. […]” for “post-transfection.”
For binding assays, 1.5-25 μg of membranes (dependent upon receptor expression levels) were incubated for 3 hours at room temperature in binding buffer (10 mM HEPES, 5 mM MgCl2, 0.2% BSA) containing 10 pM ^125I-hCGRP (Amersham) in a total volume of 1 mL. […] Data were analyzed by using GraphPad Prism.

A further assay concerns the target T3, rCRLR/Chimera 1 (Rattus norvegicus, UniProt Q63118+Q9JJ74, D29E/D31N/E46V/G64R/I36L/I51V/K45Q/K53E/K61R/P30A/Q37R/R28Q/R43Q/S42T/T34A/T50A/V24T).
T3 construct: expressed in transfected cells; host or cells: 293 EBNA cells, transient co-transfection, membranes
The assay is described as follows: competitive 125I-hCGRP binding, membranes expressing rCRLR with RAMP1 Chimera 1. Set-up: species or system rat CRLR, human/rat chimeric RAMP1. As to conditions: Table 5; rCRLR/Chimera 1 (first 66 aa of rRAMP1 replaced with human). An excerpt:
Two human/rat chimeric RAMP1 cDNAs were constructed by using restriction fragments of the corresponding native cDNAs. Chimera 1 was created by replacing the nucleotides coding for the first 66 amino acids of rRAMP1 with the corresponding nucleotides of hRAMP1 by using the BsgI restriction site along with a NheI site located in the cloning vector. Chimera 2 was created by replacing the nucleotides coding for the first 112 amino acids of rRAMP1 with the corresponding nucleotides of hRAMP1 by using the SanDI restriction site along with a NheI site located in the cloning vector. Cell Culture and DNA Transfection-293 EBNA cells were cultured in DMEM with 4.5 g/L glucose, 1 mM sodium pyruvate and 2 mM glutamine supplemented with 10% Fetal Bovine Serum (FBS), 100 units/mL penicillin and 100 μg/mL streptomycin, and maintained at 37° C. and 95% humidity. Cells were subcultured by treatment with 0.25% trypsin with 0.1% EDTA in HBSS. Twenty-four hours prior to transfection, the cells were seeded at 2.0×10^7/dish in 500 cm^2 dishes. The following day, the cells were re-fed with fresh growth medium 1 hour before transfection. Transfections were performed by combining 60 μg/dish DNA with 180 μg/dish Lipofectamine 2000 (Life Technologies). cDNA's for CRLR and RAMP1 in the mammalian expression vector pcDNA3.1 were co-transfected in equal amounts. […] Data were analyzed by using GraphPad Prism. […]

Another assay has as its target T4, rCRLR/rK74W RAMP1 (Rattus norvegicus, UniProt Q63118+Q9JJ74, K74W).
T4 construct: and the rRAMP1 expression vector construct as template; expressed in transfected cells; host or cells: 293 EBNA cells, transient co-transfection, membranes
The assay is described as follows: competitive 125I-hCGRP binding, membranes expressing rCRLR and mutant rK74W RAMP1. The note with it: Table 6. How it is done:
Rat RAMP1 site-directed mutagenesis was performed by using the Quick Change Site-directed Mutagenesis Kit (Stratagene) according to the manufacturer's instructions. […] of rRAMP1 was replaced with the corresponding human/marmoset amino acid tryptophan utilizing two complementary mutant oligonucleotide primers ([NT] ID NO:27] and [NT] ID NO:28]) and the rRAMP1 expression vector construct as template. This mutation was accomplished by substituting the codon TGG corresponding to tryptophan (r[…] RAMP1). All constructs were sequenced bidirectionally with 100% coverage in each direction. Cell Culture and DNA Transfection-293 EBNA cells were cultured in DMEM with 4.5 g/L glucose, 1 mM sodium pyruvate and 2 mM glutamine supplemented with 10% Fetal Bovine Serum (FBS), 100 units/mL penicillin and 100 μg/mL streptomycin, and maintained at 37° C. and 95% humidity. Cells were subcultured by treatment with 0.25% trypsin with 0.1% EDTA in HBSS. Twenty-four hours prior to transfection, the cells were seeded at 2.0×10^7/dish in 500 cm^2 dishes. The following day, the cells were re-fed with fresh growth medium 1 hour before transfection. Transfections were performed by combining 60 μg/dish DNA with 180 μg/dish Lipofectamine 2000 (Life Technologies). cDNA's for CRLR and RAMP1 in the mammalian expression vector pcDNA3.1 were co-transfected in equal amounts. […] Data were analyzed by using GraphPad Prism. […]

Assay [2] concerns the target T5, mCRLR/mRAMP1 (native mouse receptor) (Mus musculus, UniProt Q9R1W5+Q9WTJ5).
T5 construct: expressed in transfected cells
The assay is described as follows: competitive binding, membranes expressing mCRLR/mRAMP1. As to conditions: Table 7. How it is done: as §1, §2, §3

The target in another assay is T6, mCRLR/mK74W RAMP1 (Mus musculus, UniProt Q9R1W5+Q9WTJ5, K74W).
T6 construct: The mouse RAMP1 expression vector construct was used as template; expressed in transfected cells
As to the kind of experiment: competitive binding, membranes expressing mCRLR and mutant mK74W RAMP1. As to conditions: Table 7. The protocol:
as §1, §2, §3

A further assay addresses human CGRP receptor (Homo sapiens, UniProt O60894+Q16602). The note with it: cited from earlier work.
The target in the next assay is rCRLR/rRAMP1 (rat) (UniProt Q63118). As to the kind of experiment: competitive radioligand binding against 10 pM 125I-hCGRP, membranes of transfected 293 EBNA cells.

As to `NCCCC[C@H](NC(=O)[C@@H](Cc1cc(Br)c(O)c(Br)c1)NC(=O)N1CCC(N2Cc3ccccc3NC2=O)CC1)C(=O)N1CCN(c2ccncc2)CC1` [BIBN4096BS], the IC50 turned out to be 6.9 nM in assay [1] (Table 4); 5.5 nM in assay [1] (Table 6); 0.41 nM at rCRLR/hRAMP1; 4.8 nM on rCRLR/Chimera 1; 0.08 nM on rCRLR/rK74W RAMP1; 8.5 nM in assay [2]. For the same molecule, at mCRLR/mK74W RAMP1, the IC50 is 0.1 nM. The “higher affinity for the human CGRP receptor than for the rat receptor” value on human CGRP receptor (human vs rat, Doods et al.) is 200 fold. Also, on human CGRP receptor (versus human CGRP receptor, Doods et al. 2000), the “lower affinity for CGRP receptors from rat, rabbit, dog, and guinea pig” value is listed as 200 fold.
CGRP8-37 (peptide) had an IC50 with rCRLR/rRAMP1 (rat) of 2 nM.

Values taken from US20040197859A1, “Isolated dna molecules encoding humanized calcitonin gene-related peptide receptor, related non-human transgenic animals and assay methods” (priority 2001, published 2004).
